Values joined by “and” are separate entries in the source; they are usually repeats but may differ in a detail not shown here. Identical values can stand only once. Like-named read-outs stand apart in the source and are kept apart here.
Tests used:
[1] = tested on: Shionogi mouse mammary carcinoma cells; assay: In vitro androgenic/antiandrogenic activity: proliferation of Shionogi cells with or without DHT; format: cell-based; details: for stimulation at 10^−7M on basal Shionogi cell proliferation (in words): basal (no DHT)
[2] = target: Human Androgen Receptor (Homo sapiens (Human), UniProt P10275); assay: Androgen receptor assay: [3H]R1881 displacement, cytosol of HEK-293 cells transfected with hAR (hydroxylapatite assay); format: binding
[3] = tested on: castrated (CX) immature male rats; assay: Systemic androgenic (agonistic) activity in orchidectomized (CX) immature male rats; format: in vivo, rat; details: 0.1 mg/rat/po, 7 days; for CX Agonistic activity % Stimulation Bulbo: bulbocavernosus muscles weight; for CX Agonistic activity % Stimulation SV: seminal vesicles weight; for CX Agonistic activity % Stimulation Prostate: ventral prostate weight
Method: Immature male rats (Crl:CD(SD)Br) 22 to 24-day old weighting 60-80 g at start of treatment were obtained from Charles-River, Inc. (St-Constant, Quebec, Canada) and housed up to 5 per cage in plastic bins in a temperature (23±1° C.)- and light (12 h light/day, lights on at 7 h15)-controlled environment. The rats were fed rodent chow and tap water ad libitum. […] The day following their arrival, the designed animals were orchidectomized (CX) under Isoflurane anesthesia (Study Day 1) via the scrotal route and were then randomly assigned to groups of 3 to 5 animals. At the time of orchidectomy, one silastic implant of dihydrotestosterone (DHT; 1 cm length of pure DHT in silastic tubing having inner and outer diameter of 0.078 and 0.125 inches, respectively), was inserted subcutaneously in the dorsal area of animals assigned to the evaluation of antiandrogenic activity. In the case of intact animal experiments, the orchidectomy and the silastic implant installation are omitted.
Tested compounds were administered orally once daily for 7 days from Study Day 2 to Study Day 8 at doses generally ranging from 0.1 and 0.5 mg/animal. Compounds were either solubilized in dimethylsulfoxide (DMSO, 10% final concentration) and were administered as a solution/suspension in 0.9% NaCl-1% gelatin or were administered as suspensions in 0.4% aqueous methylcellulose. Animals of the control groups received the corresponding vehicle alone during the 7-day period. Some animals were treated with the antiandrogen Flutamide or Casodex as reference. The animals under isoflurane anesthesia were killed by cervical dislocation on day 9 of the study, approximately 24 h after the last dosing. The ventral prostate, seminal vesicles and bulbocavernosus muscles were rapidly dissected and weighed.
For calculations with intact animals, control DHT is replaced by control intact and the % stimulation is subtracted by 100%. W is the weight of the prostate, seminal vesicles or bulbocavernosus muscles. Discussion

[4] = relative binding affinity, R1881 = 100, transfected cells
[5] = Mus musculus, read-out: Shionogi Antiandrogenic Activity IC50, DHT (0.3 nM)-stimulated cell number
[6] = relative binding affinity, R1881 = 100, […]
[7] = read-out: Shionogi Antiandrogenic Activity IC50, DHT (0.3 nM)-stimulated cell number

Chain of Human Androgen Receptor (P10275 whole entry): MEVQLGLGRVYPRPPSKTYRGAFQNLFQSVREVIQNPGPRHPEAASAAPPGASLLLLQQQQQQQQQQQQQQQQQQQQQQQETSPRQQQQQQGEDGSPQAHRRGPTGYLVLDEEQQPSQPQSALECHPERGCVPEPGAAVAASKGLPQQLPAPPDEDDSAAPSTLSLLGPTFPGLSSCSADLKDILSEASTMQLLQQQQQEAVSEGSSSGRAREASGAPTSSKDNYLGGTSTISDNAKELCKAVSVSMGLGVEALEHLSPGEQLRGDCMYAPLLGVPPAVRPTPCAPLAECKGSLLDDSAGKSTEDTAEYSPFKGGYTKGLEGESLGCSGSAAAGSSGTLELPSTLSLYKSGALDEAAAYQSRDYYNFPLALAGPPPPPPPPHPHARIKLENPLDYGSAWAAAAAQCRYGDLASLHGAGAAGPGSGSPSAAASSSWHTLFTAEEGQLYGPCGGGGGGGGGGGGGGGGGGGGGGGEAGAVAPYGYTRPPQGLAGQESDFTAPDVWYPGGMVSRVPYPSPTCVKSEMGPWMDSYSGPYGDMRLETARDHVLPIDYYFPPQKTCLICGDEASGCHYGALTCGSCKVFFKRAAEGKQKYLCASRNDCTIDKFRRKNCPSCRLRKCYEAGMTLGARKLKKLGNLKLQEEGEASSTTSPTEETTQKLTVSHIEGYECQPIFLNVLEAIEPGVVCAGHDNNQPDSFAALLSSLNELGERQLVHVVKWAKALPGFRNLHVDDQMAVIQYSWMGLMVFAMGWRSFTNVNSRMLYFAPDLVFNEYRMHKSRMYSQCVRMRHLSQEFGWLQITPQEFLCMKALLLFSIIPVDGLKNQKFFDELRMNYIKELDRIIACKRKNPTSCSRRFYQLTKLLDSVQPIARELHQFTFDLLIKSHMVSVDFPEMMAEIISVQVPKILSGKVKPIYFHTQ

SMILES | Human Androgen Receptor Binding RBA (%) R1881 = 100 [2, 4] | IC50 [1, 5] | Human Androgen Receptor Binding RBA (%) R1881 = 100 [2, 6] | further results
CC1(C)C(=O)N(c2ccc(C#N)c(C(F)(F)F)c2)C(=S)N1CCCOc1ccc(CN2CCC(O)C2)cc1 (stereo not drawn) [EM-7365, reference compound] | 24% |  |  | IC50 ([1]; DHT (0.3 nM)-stimulated cell number, read-out: Shionogi Antiandrogenic Activity IC50): 6 nM
CC1(C)C(=O)N(c2ccc(C#N)c(C(F)(F)F)c2)C(=S)N1CCCOc1ccc(-c2cccnc2)cc1 [EM-8840] |  | 24 ± 6 nM | 1090 ± 500 (n = 2) % | 
CC1(C)C(=O)N(c2ccc(C#N)c(C(F)(F)F)c2)C(=S)N1CCCOc1ccc(-c2ccncc2)cc1 [EM-8841] |  | 73 ± 5 nM | 1200 ± 330 (n = 2) % | 
CC1(C)C(=O)N(c2ccc(C#N)c(C(F)(F)F)c2)C(=S)N1CCCOc1ccc(-c2ccncc2)c(F)c1 [EM-8851] | 3310% and 3310 ± 1780 (n = 2) % | 77 ± 20 nM |  | 
CC1(C)C(=O)N(c2ccc(C#N)c(C(F)(F)F)c2)C(=S)N1CCCOc1cccc(-c2ccncc2)c1 [EM-8871] |  | 66 nM | 558 ± 102 (n = 2) % | 
CC1(C)C(=O)N(c2ccc(C#N)c(C(F)(F)F)c2)C(=S)N1CCCOc1ccc(-c2ccncc2)cc1F [EM-8872] |  | 36 nM | 723 ± 59 (n = 2) % | 
CC1(C)C(=O)N(c2ccc(C#N)c(C(F)(F)F)c2)C(=S)N1CCCOc1ccc(-c2ccncc2)c(Cl)c1 [EM-8888] | 1880 ± 1040 (n = 2) % |  |  | IC50 ([1]; Mus musculus, DHT (0.3 nM)-stimulated cell number, read-out: Shionogi Antiandrogenic Activity IC50): 111 nM
CC1(C)C(=O)N(c2ccc(C#N)c(C(F)(F)F)c2)C(=S)N1CCCOc1ccc(-c2ccncc2)c(C(F)(F)F)c1 [EM-8890] | 59 ± 25 (n = 2) % | 13.2 nM |  | 
CC1(C)C(=O)N(c2ccc(C#N)c(C(F)(F)F)c2)C(=S)N1CCCOc1ccc(-c2ccncc2)cc1C(F)(F)F [EM-8900] |  | 2.6 to 4.3 nM | 130 ± 60 (n = 2) % | stimulation at 10^−7M on basal Shionogi cell proliferation (in words) [1]: none of these compounds has any activity; IC50 [1, 7]: 3.8 nM
Cc1ccc(-c2ccc(OCCCN3C(=S)N(c4ccc(C#N)c(C(F)(F)F)c4)C(=O)C3(C)C)cc2)cn1 [EM-8908] |  | 50 nM | 944 ± 265 (n = 2) % | 
CC1(C)C(=O)N(c2ccc(C#N)c(C(F)(F)F)c2)C(=S)N1CCCOc1ccc(-c2ccnc(F)c2)cc1 [EM-8923] | 136% | 48 nM |  | 
CC1(C)C(=O)N(c2ccc(C#N)c(C(F)(F)F)c2)C(=S)N1CCCOc1ccc(-c2cc[n+]([O-])cc2)cc1 [EM-8929] | 100 ± 12 (n = 2) % |  |  | IC50 [1, 7]: 17 ± 10 nM
CC1(C)C(=O)N(c2ccc(C#N)c(C(F)(F)F)c2)C(=O)N1CCCOc1ccc(-c2cc[n+]([O-])cc2)cc1 [EM-9000] |  | 20 ± 10 nM | 1.5 ± 0.3 (n = 2) % | 
CC1(C)C(=O)N(c2ccc(C#N)c(F)c2)C(=S)N1CCCOc1ccc(-c2ccncc2)c(F)c1 [EM-9011] | 43 ± 9 (n = 2) % | 6.6 ± 0.8 nM |  | 
CC1(C)C(=O)N(c2ccc(C#N)c(F)c2)C(=S)N1CCCOc1ccc(-c2ccncc2)cc1 [EM-9025] | 39% |  |  | stimulation at 10^−7M on basal Shionogi cell proliferation (in words) [1]: none of these compounds has any activity
CC1(C)C(=O)N(c2ccc(C#N)c(Cl)c2)C(=S)N1CCCOc1ccc(-c2ccncc2)c(F)c1 [EM-9037] | 1040 ± 350 (n = 2) % | 8.7 nM |  | 
CC1(C)C(=O)N(c2ccc(C#N)c(Cl)c2)C(=S)N1CCCOc1ccc(-c2ccncc2)cc1 [EM-9039] |  | 2.6 to 4.3 nM | 762 ± 396 (n = 2) % | stimulation at 10^−7M on basal Shionogi cell proliferation (in words) [1]: none of these compounds has any activity; IC50 [1, 7]: 4.3 nM
CC1(C)C(=O)N(c2ccc(C#N)c(C(F)(F)F)c2)C(=S)N1CCCOc1ccc(-c2cc[n+]([O-])cc2)cc1.Cl [EM-9043] |  |  | 175% | stimulation at 10^−7M on basal Shionogi cell proliferation (in words) [1]: none of these compounds has any activity; IC50 [1, 7]: 3.4 nM
CC1(C)C(=O)N(c2ccc(C#N)c(Cl)c2)C(=S)N1CCCOc1ccc(-c2cccnc2)cc1 [EM-9049] |  | 6.8 nM | 269% | 
CC1(C)C(=O)N(c2ccc(C#N)c(C(F)(F)F)c2)C(=S)N1CCCOc1ccc(-c2ccncc2)cn1 [EM-9050] |  | 12 ± 2 nM | 317 ± 122 (n = 2) % | 
CC1(C)C(=O)N(c2ccc(C#N)c(C(F)(F)F)c2)C(=O)N1CCCOc1ccc(-c2ccncc2)cc1F [EM-9055] | 7.3% | 10.6 nM |  | 
Cc1c(N2C(=O)N(CCCOc3ccc(-c4ccncc4)cc3F)C(C)(C)C2=O)ccc(C#N)c1F [EM-9204] | 22% |  |  | 
Cc1c(N2C(=O)N(CCCOc3ccc(-c4cc[n+]([O-])cc4)c(F)c3)C(C)(C)C2=O)ccc(C#N)c1F [EM-9208] | 2.2% |  |  | 
CC1(C)C(=O)N(c2ccc(C#N)c(Cl)c2)C(=O)N1CCCOc1ccc(-c2cc[n+]([O-])cc2)cn1 [EM-9225] |  |  |  | Human Androgen Receptor Binding RBA (%) R1881 = 100 [2]: 0.8%
CC1(C)C(=O)N(c2ccc(C#N)c(Cl)c2)C(=O)N1CCCOc1ccc(-c2ccncc2)cc1Cl.Cl [EM-9287] |  |  | 125 ± 9 (n = 3) % | 
CC1(C)C(=O)N(c2ccc(C#N)c(Cl)c2)C(=O)N1CCCOc1ccc(-c2cc[n+]([O-])cc2)cc1Cl.Cl [EM-9288] |  |  | 24 ± 8 (n = 2) % | 
Cc1c(N2C(=O)N(CCCCc3ccc(-c4ccncc4)cc3)C(C)(C)C2=O)ccc(C#N)c1Cl [EM-9336] |  |  | 32.3% | CX Agonistic activity % Stimulation Bulbo [3]: 59%; CX Agonistic activity % Stimulation SV [3]: 8%; CX Agonistic activity % Stimulation Prostate [3]: 27%
Cc1c(N2C(=O)N(CCOc3ccc(-c4ccncc4)cc3)C(C)(C)C2=O)ccc(C#N)c1Cl [EM-9337] |  |  | 28.3% | CX Agonistic activity % Stimulation Bulbo [3]: 95%; CX Agonistic activity % Stimulation SV [3]: 17%; CX Agonistic activity % Stimulation Prostate [3]: 33%
Cc1c(N2C(=O)N(CCOc3ccc(-c4cc[n+]([O-])cc4)cc3)C(C)(C)C2=O)ccc(C#N)c1Cl [EM-9339] |  |  | 4.0% | CX Agonistic activity % Stimulation Bulbo [3]: 68%; CX Agonistic activity % Stimulation SV [3]: 12%; CX Agonistic activity % Stimulation Prostate [3]: 27%
CC(C)(O)C(=O)Nc1ccc([N+](=O)[O-])c(C(F)(F)F)c1 [OH-FLU, hydroxyflutamide, reference compound] | 0.21 ± 0.09 (n = 3) % |  |  | Human Androgen Receptor Binding RBA (%) R1881 = 100 ([2]; relative binding affinity, R1881 = 100, transfected cells, listed as hydroxyflutamide): 0.21%

From patent publication US9682960B2 (priority 2013, dated 2017)
